The numbers were not newly measured in patent US5830500A, “Low dose fluoxetine tablet” (Pentech Pharmaceuticals, Inc., priority 1996, dated 1998), which cites them from elsewhere.

In the series the test system is premature ejaculation. As to conditions: reported.

With `CN(C)CCCN1c2ccccc2CCc2ccc(Cl)cc21` [clomipramine], the side effects result is “weight gain, sedation, and anticholinergic effects”. Also, the “success in managing premature ejaculation” value (informal use by a few practitioners) is recorded as “Some limited success”.
